Data published in patent US20130184272A1, “DIABETES THERAPEUTIC AGENT” (TAKEDA PHARMACEUTICAL COMPANY LIMITED, priority 2010, published 2013).

Tests used:
C2C12 cell = test: Sugar metabolism promoting activity in muscle cell (lactic acid production); type: cell-based, Mouse; conditions: Mus musculus, 48 h; compound 1 μM, 2 days, C2C12 myotubes; without drug = 100%; read-out: lactic acid production promoting action (%)
Method: • (1) In the same manner as in Example 1, C2C12 cell was cultured in a growth medium. After reaching subconfluence of not less than 90%, the medium was exchanged with a differentiation medium and the cells were cultured for about 7 days while exchanging the medium every 2 or 3 days until the cells differentiated to form a myotube. • (2) After confirmation of myotube formation under a microscope, the test compound (1 μM) was added to a differentiation medium and cultured for 2 days. The cells were washed with Krebs-Ringer HEPES phosphate buffer (10 mM HEPES, pH 7.4, 131 mM NaCl, 4.7 mM KCl, 2.5 mM CaCl2—2H2O, 1.2 mM MgSO4—7H2O, 1.2 mM KH2PO4), the medium was exchanged with Krebs-Ringer HEPES phosphate buffer added with 5 mM glucose, 0.2% fatty acid-free bovine serum albumin, and cultured at 37° C. for 4 hr. • (3) The lactic acid concentration of the culture supernatant was measured using Detarminer LA kit (Kyowa Medex Co., Ltd.).
The numerical values in Table 2 show the concentration of the compound addition group with the concentration of lactic acid without addition of a drug as 100%.

Female KKA^y mice = test: Anti-diabetes action and dyslipidemia improving effect in KKA^y mouse; type: in vivo; conditions: 2 weeks, control group = 100
Method: Female KKA^y mice (12-week-old, CLEA Japan, Inc.) were bred while allowing free ingestion of both feed and water. The mice were bred for acclimation with powder CE-2 (CLEA Japan, Inc.) from 2 weeks before administration of the compound. The body weight and plasma markers were measured and, at 14 weeks of age, they were divided such that the measured values were uniform with those of the control group. The compound of Reference Example 1, 2, 7, 8, 9 or 22 was administered for 2 weeks in a mixed feed (0.01-0.0001%). On the last day, plasma levels of glucose, insulin, total cholesterol and neutral lipid were measured.

[1] = system: Mouse-derived myoblast line C2C12 cell; test: Cell differentiation promoting activity in myoblast (creatine kinase activity); type: cell-based; conditions: Mus musculus, C2C12, 48 h, 2 days, without compound = 100%, read-out: creatine kinase activating action (%); for activity at 0.01 µM: compound at 0.01 μM (**); for activity at 1 µM: compound at 1 μM
Method: • (1) Mouse-derived myoblast line C2C12 cell (Dainippon Pharmaceutical Co., Ltd.) was subcultured in a high glucose Eagle's modified Dulbecco's medium (GIBCO) added with 10% calf fetal bovine serum (GIBCO), 100 unit/mL penicillin and 100 μg/mL streptomycin (hereinafter to be referred to as a growth medium), plated at 5000 cells/cm^2 and cultured at 37° C., under 5% CO2. • (2) When the cells reached subconfluence of not less than 90%, the medium was exchanged with high glucose Eagle's modified Dulbecco's medium (GIBCO) added with (i) 2% horse serum (GIBCO) and (ii) penicillin, streptomycin and a test compound (hereinafter to be referred to as a differentiation medium) and the cells were cultured for 2 days. To the control group was added DMSO solution instead of the test compound. • (3) The cells were washed with PBS, 0.5% NP-40 solution was added, and the cells were lysed by freeze-thawing. The cell extract was centrifuged and the creatine kinase activity in the supernatant was measured as an index of muscle differentiation. The creatine kinase activity was measured using CPKII Test Wako (Wako Pure Chemical Industries, Ltd.) according to the manual of the kit.
The numerical values in Table 1 show creatine kinase activity of the compound addition group when the creatine kinase activity without addition of the compound is 100%, and * means measurement with addition of the compound at 10 μM, ** at 0.01 μM, and others at 1 μM.

Row | Structure (SMILES) | activity at 1 µM (C2C12 cell) [%] | activity at 0.01 µM [1] [%] | activity at 1 µM [1] [%] | other results
1 | Cn1ncc2c1-c1c(Oc3ccc(F)cc3)sc(C(N)=O)c1CC2 [Ref. Ex. 2, 8-(4-fluorophenoxy)-1-methyl-4,5-dihydro-1H-thieno[3,4-g]indazole-6-carboxamide] | 159 | 175 |  | plasma glucose (%) (Female KKA^y mice; mixed feed dose 0.0003 %): 49.0 ± 7.1%; plasma neutral lipid (%) (Female KKA^y mice; mixed feed dose 0.0003 %): 40.4 ± 6.6%; plasma total cholesterol (%) (Female KKA^y mice; mixed feed dose 0.0003 %): 62.4 ± 7.1%
2 | Cn1ncc2c1-c1c(Oc3ccc(OC(F)(F)F)cc3)sc(C(N)=O)c1CC2 [Ref. Ex. 8, 1-methyl-8-[4-(trifluoromethoxy)phenoxy]-4,5-dihydro-1H-thieno[3,4-g]indazole-6-carboxamide] | 274 | 190 |  | plasma glucose (%) (Female KKA^y mice; mixed feed dose 0.0003 %): 78.2 ± 22.2%; plasma neutral lipid (%) (Female KKA^y mice; mixed feed dose 0.0003 %): 72.2 ± 22.1%; plasma total cholesterol (%) (Female KKA^y mice; mixed feed dose 0.0003 %): 85.7 ± 11.5%
3 | Cn1ncc2c1-c1c(Oc3ccc4c(c3)OCO4)sc(C(N)=O)c1CC2 [Ref. Ex. 9, 8-(1,3-benzodioxol-5-yloxy)-1-methyl-4,5-dihydro-1H-thieno[3,4-g]indazole-6-carboxamide] | 196 | 171 |  | plasma glucose (%) (Female KKA^y mice; mixed feed dose 0.001 %): 42.9 ± 3.7%; plasma insulin (%) (Female KKA^y mice; mixed feed dose 0.001 %): 13.7 ± 21.1%; plasma neutral lipid (%) (Female KKA^y mice; mixed feed dose 0.001 %): 51.0 ± 11.9%; plasma total cholesterol (%) (Female KKA^y mice; mixed feed dose 0.001 %): 74.5 ± 14.4%
4 | CC(=O)Nc1ccc(Oc2sc(C(N)=O)c3c2-c2c(cnn2C)CC3)cc1 [Ref. Ex. 22, 8-[4-(acetylamino)phenoxy]-1-methyl-4,5-dihydro-1H-thieno[3,4-g]indazole-6-carboxamide] | 311 | 195 |  | plasma glucose (%) (Female KKA^y mice; mixed feed dose 0.0003 %): 60.9 ± 27.1%; plasma neutral lipid (%) (Female KKA^y mice; mixed feed dose 0.0003 %): 42.3 ± 7.2%; plasma total cholesterol (%) (Female KKA^y mice; mixed feed dose 0.0003 %): 71.0 ± 7.3%
5 | COc1ncccc1Oc1sc(C(N)=O)c2c1-c1c(cnn1C)CC2 [Ref. Ex. 34, 8-[(2-methoxypyridin-3-yl)oxy]-1-methyl-4,5-dihydro-1H-thieno[3,4-g]indazole-6-carboxamide] | 249 |  | 164 | 
6 | COc1ccc(Oc2sc(C(N)=O)c3c2-c2c(cnn2C)CC3)cn1 [Ref. Ex. 35, 8-[(6-methoxypyridin-3-yl)oxy]-1-methyl-4,5-dihydro-1H-thieno[3,4-g]indazole-6-carboxamide] | 228 | 192 |  | 
7 | CN(C)c1sc(C(N)=O)c2c1-c1c(cnn1C)CC2 [Ref. Ex. 36, 8-(dimethylamino)-1-methyl-4,5-dihydro-1H-thieno[3,4-g]indazole-6-carboxamide] | 211 |  | 139 | 
8 | Cn1ncc2c1-c1c(Oc3ncccn3)sc(C(N)=O)c1CC2 [Ref. Ex. 37, 1-methyl-8-(pyrimidin-2-yloxy)-4,5-dihydro-1H-thieno[3,4-g]indazole-6-carboxamide] | 255 |  | 129 | 
9 | Cc1cccc(Oc2sc(C(N)=O)c3c2-c2c(cnn2C)CC3)n1 [Ref. Ex. 38, 1-methyl-8-[(6-methylpyridin-2-yl)oxy]-4,5-dihydro-1H-thieno[3,4-g]indazole-6-carboxamide] | 157 |  | 152 | 
10 | Cn1ncc2c1-c1c(S(=O)(=O)c3ccc4c(c3)OCO4)sc(C(N)=O)c1CC2 [Ref. Ex. 39, 8-(1,3-benzodioxol-5-ylsulfonyl)-1-methyl-4,5-dihydro-1H-thieno[3,4-g]indazole-6-carboxamide] | 207 |  | 176 | 
11 | Cn1ncc2c1-c1c(Oc3cccnc3OCCN3CCCC3=O)sc(C(N)=O)c1CC2 [Ref. Ex. 40, 1-methyl-8-({2-[2-(2-oxopyrrolidin-1-yl)ethoxy]pyridin-3-yl}oxy)-4,5-dihydro-1H-thieno[3,4-g]indazole-6-carboxamide] | 120 |  | 120 | 
12 | CN(CCOc1ncccc1Oc1sc(C(N)=O)c2c1-c1c(cnn1C)CC2)c1ccccc1 [Ref. Ex. 41, 1-methyl-8-[(2-{2-[methyl(phenyl)amino]ethoxy}pyridin-3-yl)oxy]-4,5-dihydro-1H-thieno[3,4-g]indazole-6-carboxamide] | 120 |  | 130 | 
13 | COCCOc1ccc(Oc2sc(C(N)=O)c3c2-c2c(cnn2C)CC3)cn1 [Ref. Ex. 42, 8-{[6-(2-methoxyethoxy)pyridin-3-yl]oxy}-1-methyl-4,5-dihydro-1H-thieno[3,4-g]indazole-6-carboxamide] | 319 | 179 |  | 
